# Assay results: patent US20230106592A1, “METHOD FOR TREATING CANCER USING A COMBINATION OF DNA DAMAGING AGENTS AND ATR INHIBITORS” (Vertex Pharmaceuticals Incorporated, priority 2015, published 2023)
# System: PSN1 cancer cells
# Assay: In vitro dose schedule with gemcitabine, MTS cell viability, Bliss synergy analysis
# Type: cell-based, human
# Method: Cell viability was measured by MTS assay at 96 hours and the data subjected to a statistical Bliss analysis using MacSynergy II software to quantitate synergy as a log volume.
# Cell viability was measured by MTS assay (96 hours) and the data subjected to a statistical Bliss analysis. Compound A-2 synergized with gemcitabine when administered at the start of gemcitabine treatment. […] The strong schedule dependence is attributed to an accumulation of cells in S phase, and concomitant increase in ATR activity (measured by P-Chk1) that occurs in response to gemcitabine treatment alone.
smiles,measurement,setting,value
CNCc1ccc(-c2cc(-c3nc(-c4ccc(S(=O)(=O)C(C)C)cc4)cnc3N)on2)cc1 [Compound A-2],Synergy with gemcitabine (Bliss analysis of cell viability),"Compound A-2 2 hour exposure at the start of 24 hour gemcitabine treatment, MTS at 96 hours",synergized
same,Synergy with gemcitabine (Bliss analysis of cell viability),Compound A-2 administered 24 hours after starting gemcitabine treatment,maximal
same,Synergy with gemcitabine (Bliss analysis of cell viability),Compound A-2 administered 48 hours or later after gemcitabine treatment was started,No synergy
